Values joined by “and” are separate entries in the source; they are usually repeats but may differ in a detail not shown here. Equal values may be shown once. “Also recorded” adds a separate entry of the source. Read-outs that look alike come from different tables or passages of the source.
Legend:
[1] = target: T1, Q58-htn 1–171 amino terminal fragment (GST-Q58-Htn cleaved by thrombin) (Homo sapiens, UniProt P42858, INS38QQQQQQQQQQQQQQQQQQQQQQQQQQQQQQQQQQQQQ); test: in vitro aggregation of amino-terminal mutant huntingtin fragment (filter retardation dot blot); type: biochemical
T1 construct: the amino terminal fragment 1–171 of mutant huntingtin; GST (N, cleaved yes); made in house; host or cells: E. coli BL21 (pGEX-2TK vector)
T1 sequence (P42858 with tags, fused parts or gaps with the stated changes limits assumed): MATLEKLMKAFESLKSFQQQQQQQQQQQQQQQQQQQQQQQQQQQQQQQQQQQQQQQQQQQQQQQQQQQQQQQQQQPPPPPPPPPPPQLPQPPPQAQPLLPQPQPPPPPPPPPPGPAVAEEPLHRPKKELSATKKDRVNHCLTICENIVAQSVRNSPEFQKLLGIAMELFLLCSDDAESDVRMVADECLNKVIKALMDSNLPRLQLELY
Experimental: In our primary screen (Figure 1A), GST-Q58-Htn (20 μg/ml) was mixed with thrombin (0.5 unit/μg GST-Q58-Htn) and immediately dispensed into a 96-well PCR plate containing compounds diluted to a final concentration of 100 μM. Incubation was continued for 24 hours at room temperature to allow aggregate formation. The aggregation was stopped by 2% SDS/10 mM 2-mercaptoethanol followed by boiling for 5 minutes. The mixture was filtered through a cellulose acetate membrane by using a 96-well ELIFA dot blot apparatus. The aggregates retained on the membrane were detected and quantified by immunoblotting and subsequent image analysis. Congo Red, a known huntingtin aggregation inhibitor, was used as the positive control.
A recombinant pGEX-2TK expression vector with cDNA fragment encoding amino terminal 171 amino acids of human huntingtin with a polyglutamine tract of 58 was used to prepare the GST-Q58-htn fusion protein. The GST-Q58-htn was overexpressed in BL21 cells and purified by affinity chromatography over glutathione-sepharose 4B beads (Amersham Pharmacia Biotech). The purified proteins were stored at concentration of 2.0 mg/ml at -80°C.
For primary screening of the chemical library, 1 μl of 4.0 mM small compound stock, diluted from the original plates, was placed in wells of 96-well plates. The fusion protein, GST-Q58-Htn was mixed with thrombin (0.5 unit/1 μg protein) at a concentration of 20 μg/ml in a buffer of 50 mM Tris-HCl, pH 8.0, 100 mM NaCl, 2.5 mM CaCl2, 1.0 mM EDTA. The mixture was immediately distributed into the 96-well plates containing diluted compounds at 40 μl/well and mixed well. The final concentration of the small compounds was 100 μM. After 24 hours incubation at room temperature, the reaction was stopped by adding 10 μl of 10% SDS/50 mM 2-mercaptoethanol to each well followed by boiling in a PCR machine for 5 minutes. The mixture from each well was filtered through a cellulose acetate membrane ((0.2 μm, GE Osmonics labstore, Minnetonka MN) by using a 96-well ELIFA (Pierce Biotech). The aggregates retained on the membrane were detected by a specific anti-huntingtin antibody, HP1 (diluted 1:1000), followed by incubation with peroxidase conjugated anti-rabbit antibody (diluted 1:10,000, Sigma). Signals from SDS insoluble aggregates were scanned and quantified by using ImageMaster Totalab image analysis software (Amersham Pharmacia Biotech). In the secondary screening, all steps were the same except the final concentration of compound in each well was reduced to 10 μM and the GST-Q58-Htn/thrombin mixture was preincubated for 45-minutes at room temperature and clarified by centrifugation at 28,000 × g for 30 minutes before being added to the test wells. For IC50 determinations, the in vitro aggregation assay and signal quantification were performed as in the second screening but varying the final concentration of input drug. The data for each inhibitor were obtained from at least two independent experiments in which every sample was analyzed in triplicate with Prism 3.0 software (Graphpad Software, Inc., San Diego, CA).

[2] = test system: hippocampal slice cultures from the R6/2 mouse; set-up: method as in PMID 12891671; details: 30 μM; cited from earlier work
[3] = test system: ST111/111 striatal cells (Hdh^Q111/Q111, full-length mutant huntingtin); test: striatal cell line assay: huntingtin localization phenotype (AP229 immunostaining, confocal); type: cell-based, mouse; details: for Percentage of ST111/111 cells showing cytoplasmic/nuclear huntingtin localization comparable to wild-type ST7/7 cells: 30 min at 33°C, mean ± SD of 5–10 fields; for reversal of the mutant huntingtin localization phenotype (in words): 0.5–50 μM tested
Excerpt: To test the hypothesis that compounds, which inhibit the aggregation-promoting property of amino-terminal mutant huntingtin will also rescue effects of full-length mutant huntingtin, we tested the top six inhibitors in a striatal cell-based assay. Mutant Hdh^Q111/Q111 and wild-type Hdh^Q7/Q7 striatal cell lines, […], which have been prepared by transformation with a tsSV40 vector, can be propagated in culture and used for cytological and biochemical comparisons. These cells express full-length mutant or wild-type huntingtin, respectively, with no evidence of truncated amino-terminal fragments, no formation of polyglutamine aggregates and no cell death-producing toxicity. However, like the striatal neurons of Hdh^Q111/Q111 knock-in mice, the ST111/111 cells show nuclear staining of huntingtin when tested with an amino-terminal huntingtin antibody that is sensitive to the conformation of the full-length protein (Figure 5A). By contrast, ST7/7 cells expressing wild type huntingtin show both nuclear and cytoplasmic immunostaining with the same huntingtin antibody (Figure 5A).
Conditionally immortalized wild-type Hdh^Q7/Q7 striatal neuronal progenitor cells (ST7/7) expressing endogenous normal huntingtin, and homozygous Hdh^Q111/Q111 striatal neuronal progenitor cells (ST111/111), expressing endogenous mutant huntingtin with 111-glutamines, have been described previously. The striatal cell lines were grown at 33°C in Dulbecco's modified Eagle's medium (DMEM) supplemented with 10 % fetal bovine serum (FBS), 1% nonessential aminoacids, 2 mM L-glutamine and 400 μg/ml G418 (Geneticin (GIBCO-BRL, Life Technologies, Gaithersburg, MD).
(§1) In the immunofluorescence and confocal analysis experiment, wild-type ST7/7 and homozygous mutant ST111/111 cells, grown to confluence on glass coverslips, were treated with 6 different drugs at four different concentrations (0.5, 5, 10 or 50 μM) for 30 min at 33°C. After the treatment the drugs were removed and the cells washed twice in PBS. The cells were then fixed by incubation in 4% formaldehyde for 15 min, permeabilized by 0.1% Triton X-100 for 5 min and incubated for 30 min with blocking solution (1% bovine albumin in PBS). Coverslips were then incubated in primary antibody (AP229 1:500 dilution) for 2 h at room temperature and washed three times in PBS before a further 1 h in blocking solution containing the secondary antibody (goat anti-rabbit Cy3, Jackson ImmunoResearch, West Grove, PA. USA). After three washes in PBS coverslips were mounted onto glass slides with Vectashield (Burlingame, CA. USA) and the images were analyzed with a laser confocal microscope (Bio-Rad, Hercules, CA. USA) using 20 × objective. Cell death was quantified by scoring the percentage of cells with apoptotic nuclear morphology, i.e. condensed or fragmented nuclei, under the confocal microscope. In each case five to ten randomly selected fields were counted, comprising at least 200 cells, and each experiment was repeated 3 times.

ST111/111 striatal cells = type: cell-based; details: for percentage of dead cells: mouse, 30 min
Experimental: as §1, with “After” for “In the immunofluorescence and confocal analysis experiment, wild-type ST7/7 and homozygous mutant ST111/111 cells, grown to confluence on glass coverslips, were treated with 6 different drugs at four different concentrations (0.5, 5, 10 or 50 μM) for 30 min at 33°C. After”

[4] = test system: HEK 293T cells expressing androgen receptor with 112 glutamines; details: cited from earlier work
[5] = GST-Q58-Htn 20 μg/ml pre-incubated with thrombin, 24 h room temperature, average of at least two independent experiments, read-out: IC50 (half-maximal inhibition) of Q58-Htn aggregation

## CN(C)c1ccc(O)c2c1C[C@H]1C[C@H]3[C@H](N(C)C)C(O)=C(C(N)=O)C(=O)[C@@]3(O)C(O)=C1C2=O [minocycline]
[1]; [5]
  IC50: 43 µM
[2]
  effect on huntingtin exon 1 aggregation: inhibitory effect

## C=C1c2c(Cl)ccc(O)c2C(=O)C2=C(O)[C@]3(O)C(=O)C(C(N)=O)=C(O)[C@@H](N(C)C)[C@@H]3[C@@H](O)[C@H]12 [Meclocycline sulfosalicylate]
[1]; [5]
  IC50: 14.8 µM

## C[n+]1cc2c3c(ccc2c2ccc4cc5c(cc4c21)OCO5)OCO3 [Sanguinarine nitrate]
[1]; [5]
  IC50: < 6 µM and < 15 µM and 5.7 µM
[3]; 0.5 μM
  Percentage of ST111/111 cells showing cytoplasmic/nuclear huntingtin localization comparable to wild-type ST7/7 cells: 0%
[3]; 5 μM
  Percentage of ST111/111 cells showing cytoplasmic/nuclear huntingtin localization comparable to wild-type ST7/7 cells: 3.7 ± 5.2%
[3]; 10 μM
  Percentage of ST111/111 cells showing cytoplasmic/nuclear huntingtin localization comparable to wild-type ST7/7 cells: 0%
[3]
  reversal of the mutant huntingtin localization phenotype (in words): little effect
[3]; listed as sanguinarine
  reversal of the mutant huntingtin localization phenotype (in words): not effective
ST111/111 striatal cells; 0.5 μM
  percentage of dead cells: 4.3%
ST111/111 striatal cells; 5 μM
  percentage of dead cells: 5.5%
ST111/111 striatal cells; 10 μM
  percentage of dead cells: 22.5%
[4]
  effect on caspase 3 activation: blocked caspase 3 activation

## N=C1C=CC(=C(c2ccc(N)cc2)c2ccc(N)cc2)C=C1 [Pararosaniline pamoate]
[1]; [5]
  IC50: 14.9 µM

## Nc1c(/N=N/c2ccc(-c3ccc(/N=N/c4cc(S(=O)(=O)O)c5ccccc5c4N)cc3)cc2)cc(S(=O)(=O)O)c2ccccc12 [Congo Red]
[1]; 10 μM, positive control
  inhibition of Q58-Htn aggregation: completely inhibit

## O=C1C=CC(=O)c2c(O)cccc21 [Juglone]
[1]; [5]
  IC50: < 6 µM and < 15 µM and 2.67 µM
[3]; 0.5 μM
  Percentage of ST111/111 cells showing cytoplasmic/nuclear huntingtin localization comparable to wild-type ST7/7 cells: 10.4 ± 12.4%
[3]; 5 μM
  Percentage of ST111/111 cells showing cytoplasmic/nuclear huntingtin localization comparable to wild-type ST7/7 cells: 37.9 ± 19.9%
[3]; 10 μM
  Percentage of ST111/111 cells showing cytoplasmic/nuclear huntingtin localization comparable to wild-type ST7/7 cells: 68% and 68.8 ± 18.4%
[3]
  reversal of the mutant huntingtin localization phenotype (in words): reversed the mutant phenotype in a dose-dependent manner; also recorded: effective

## Tyrothricin
[1]; [5]
  IC50: 14.7 µM
[4]
  effect on caspase 3 activation: blocked caspase 3 activation
  toxicity in the HEK 293T assay: showed toxicity

## Cc1cc2c(C(C)C)c(O)c(O)c(C=O)c2c(O)c1-c1c(C)cc2c(C(C)C)c(O)c(O)c(C=O)c2c1O [Gossypol-acetic acid]
[1]
  IC50: < 6 µM and < 15 µM and 0.65 µM
[3]; 0.5 μM
  Percentage of ST111/111 cells showing cytoplasmic/nuclear huntingtin localization comparable to wild-type ST7/7 cells: 0%
[3]; 5 μM
  Percentage of ST111/111 cells showing cytoplasmic/nuclear huntingtin localization comparable to wild-type ST7/7 cells: 4.5 ± 4.3%
[3]; 10 μM
  Percentage of ST111/111 cells showing cytoplasmic/nuclear huntingtin localization comparable to wild-type ST7/7 cells: 3.5 ± 3.5%
[3]; 50 μM
  Percentage of ST111/111 cells showing cytoplasmic/nuclear huntingtin localization comparable to wild-type ST7/7 cells: 15.9 ± 11.1%
[3]; 50 μM, listed as Gossypol acetic acid complex
  Percentage of ST111/111 cells showing cytoplasmic/nuclear huntingtin localization comparable to wild-type ST7/7 cells: 15%
[3]
  reversal of the mutant huntingtin localization phenotype (in words): not effective
[3]; listed as Gossypol acetic acid complex
  reversal of the mutant huntingtin localization phenotype (in words): less effective
ST111/111 striatal cells; tested up to 50 μM
  cell toxicity (in words): no toxicity

## CC(C)=CCC[C@]1(C)C=Cc2c(O)c3c(c(CC=C(C)C)c2O1)O[C@]12C(=C[C@@H]4C[C@H]1C(C)(C)O[C@@]2(C/C=C(/C)C(=O)O)C4=O)C3=O [Gambogic acid]
[1]; [5]
  IC50: < 6 µM and < 15 µM and 0.87 µM
[1]; at the maximum concentration of the dose response (0.01 μM to 500 μM)
  residual aggregate formed: approximately 20%
[3]; 0.5 μM
  Percentage of ST111/111 cells showing cytoplasmic/nuclear huntingtin localization comparable to wild-type ST7/7 cells: 1 ± 2.6%
[3]; 5 μM
  Percentage of ST111/111 cells showing cytoplasmic/nuclear huntingtin localization comparable to wild-type ST7/7 cells: 0%
[3]
  reversal of the mutant huntingtin localization phenotype (in words): not effective
[4]
  effect on caspase 3 activation: blocked caspase 3 activation
  toxicity in the HEK 293T assay: showed toxicity

## O=C1c2c(O)cccc2Cc2cccc(O)c21 [Anthralin]
[1]; [5]
  IC50: < 15 µM and 10.5 µM
[3]; 0.5 μM
  Percentage of ST111/111 cells showing cytoplasmic/nuclear huntingtin localization comparable to wild-type ST7/7 cells: 4.6 ± 7.6%
[3]; 5 μM
  Percentage of ST111/111 cells showing cytoplasmic/nuclear huntingtin localization comparable to wild-type ST7/7 cells: 6.6 ± 9.7%
[3]; 10 μM
  Percentage of ST111/111 cells showing cytoplasmic/nuclear huntingtin localization comparable to wild-type ST7/7 cells: 9.6 ± 12.1%
[3]; 50 μM
  Percentage of ST111/111 cells showing cytoplasmic/nuclear huntingtin localization comparable to wild-type ST7/7 cells: 11.8 ± 14.4%
[3]
  reversal of the mutant huntingtin localization phenotype (in words): little effect; also recorded: not effective

## CO[C@H]1C[C@H](O[C@@H]2/C(C)=C/C[C@@H]3C[C@@H](C[C@]4(CC[C@H](C)[C@@H](C5CCCCC5)O4)O3)OC(=O)[C@@H]3C=C(C)/C(=N/O)[C@H]4OC/C(=C\C=C\[C@@H]2C)[C@]43O)O[C@@H](C)[C@@H]1O [Selamectin]
[1]
  IC50: 12.4 µM

Reference: publication PMC548150, “Reversal of a full-length mutant huntingtin neuronal cell phenotype by chemical inhibitors of polyglutamine-mediated aggregation” (BMC Neuroscience, 2005)
